pIC50: −log10 of the molar value. Read-outs that look alike come from different tables or passages of the source.
Legend:
[1] = system: TNFα release from THP-1 cells; test: TNFα release from LPS-stimulated THP-1 cells; type: cell-based; settings: LPS 10 μg/ml, 18 hours, read-out: TNFα (THP-1) IC50
In short: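 THP-1 cells (10^6 cells/ml on resuspension) preincubated with compound 30 min at 37°C, 5% CO2, final DMSO ≤0.5%, then stimulated with 10 μg/ml LPS for 18 h (TNFα). Supernatants collected for TNFα analysis.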

[2] = target: T1, p38α (Homo sapiens, UniProt Q16539); test: p38 MAP Kinase assay, ATF2 phosphorylation (ELISA); type: biochemical; settings: 40 μM ATP
T1 construct: p38 MAP Kinases are recombinant human full-length proteins with an amino-terminal GST fusion; GST (N); purchased Upstate (Charlottesville, Va.); host or cells: E. coli
In short: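 Recombinant full-length GST-tagged human p38α (6 ng) pre-incubated 15 min at room temperature with compound, then reacted 30 min at 37° C with 40 μM ATP and 1.25 μM GST-ATF2 (aa 19-96) in HEPES pH 7.5/MgCl2 buffer. EDTA stop; ATF2 Thr69 phosphorylation measured by anti-phospho-ATF2 ELISA at 450 nm.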

T1 sequence (Q16539 whole entry, the tested form may be a part): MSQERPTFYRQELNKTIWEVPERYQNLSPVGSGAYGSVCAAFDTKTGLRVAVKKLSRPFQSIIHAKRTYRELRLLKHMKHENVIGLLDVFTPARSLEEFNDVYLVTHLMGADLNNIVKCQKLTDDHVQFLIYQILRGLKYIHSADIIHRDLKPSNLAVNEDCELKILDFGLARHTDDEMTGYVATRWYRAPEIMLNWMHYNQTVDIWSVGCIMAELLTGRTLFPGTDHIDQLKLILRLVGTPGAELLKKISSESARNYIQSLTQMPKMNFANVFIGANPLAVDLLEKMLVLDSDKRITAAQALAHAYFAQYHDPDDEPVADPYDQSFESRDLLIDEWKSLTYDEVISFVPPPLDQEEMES

Row | SMILES | pIC50 ([1]; Homo sapiens, THP-1, 18 h) | pIC50 [2] | pIC50 [1]
1 | COc1ccc(CNc2nccc(-c3c(-c4ccc(F)cc4)nc4occn34)n2)cc1OC [LXXIV] | 6.28 | 7.14 | 
2 | COc1cccc(CNc2nccc(-c3c(-c4ccc(F)cc4)nc4occn34)n2)c1OC [LXXIX] | 7.23 | 6.47 | 
3 | OCCN(CCO)CCNc1nccc(-c2c(-c3ccc(F)cc3)nc3occn23)n1 [LXXVIII] | 6.50 | 6.43 | 
4 | C[C@@H](Nc1nccc(-c2c(-c3ccc(F)cc3)nc3occn23)n1)[C@@H](O)c1ccc(O)cc1 [LXXVI] | 7.38 | 8.17 | 
5 | Oc1cccc(C(O)CNc2nccc(-c3c(-c4ccc(F)cc4)nc4occn34)n2)c1 (stereo not shown) [LXXV] | 7.57 | 8.29 | 
6 | OC[C@@H](Nc1nccc(-c2c(-c3ccc(F)cc3)nc3occn23)n1)[C@H](O)c1ccccc1 [LXXXIII] | 6.46 | 6.73 | 
7 | CC(CO)(CO)Nc1nccc(-c2c(-c3ccc(F)cc3)nc3occn23)n1 [LXXXII] | 7.30 | 6.74 | 
8 | NCCNc1nccc(-c2c(-c3ccc(F)cc3)nc3occn23)n1 [LXXXIX] | 6.22 | 6.60 | 
9 | CS(=O)(=O)c1ccc(CNc2nccc(-c3c(-c4ccc(F)cc4)nc4occn34)n2)cc1 [LXXXI] | 5.91 | 5.91 | 
10 | Fc1ccc(-c2nc3occn3c2-c2ccnc(NCC3CCCNC3)n2)cc1 (stereo not shown) [LXXXVIII] | 7.06 | 7.40 | 
11 | OCC(CO)(CO)Nc1nccc(-c2c(-c3ccc(F)cc3)nc3occn23)n1 [LXXXVI] | 6.82 | 6.64 | 
12 | Fc1ccc(-c2nc3occn3c2-c2ccnc(NCc3cccnc3)n2)cc1 [LXXXV] | 7.41 | 7.18 | 
13 | Oc1ccc(C(O)CNc2nccc(-c3c(-c4ccc(F)cc4)nc4occn34)n2)cc1 (stereo not shown) [LXXX] | 7.05 | 7.08 | 
14 | CCOC(=O)N1CCC(Nc2nccc(-c3c(-c4ccc(F)cc4)nc4occn34)n2)CC1 [LXX] | 7.91 | 8.48 | 
15 | CCCCC(CO)Nc1nccc(-c2c(-c3ccc(F)cc3)nc3occn23)n1 (stereo not shown) [LX] | 7.16 | 7.69 | 
16 | CC(C)C[C@H](CO)Nc1nccc(-c2c(-c3ccc(F)cc3)nc3occn23)n1 [L] | 6.90 | 7.06 | 
17 | OCCN(CCO)c1nccc(-c2c(-c3ccc(F)cc3)nc3occn23)n1 [XCIII] | 6.34 | 6.92 | 
18 | Fc1ccc(CNc2nccc(-c3c(-c4ccc(F)cc4)nc4occn34)n2)cc1 [XCIV] | 6.40 | 7.04 | 
19 | Fc1ccc(-c2nc3occn3c2-c2ccnc(N3CCOCC3)n2)cc1 [XCIX] | 6.07 | 7.15 | 
20 | NCCCNc1nccc(-c2c(-c3ccc(F)cc3)nc3occn23)n1 [XCI] | 6.73 | 7.30 | 

Row | SMILES | pIC50 ([1]; Homo sapiens, THP-1, 18 h) | pIC50 [2] | pIC50 [1]
21 | OC1CCN(c2nccc(-c3c(-c4ccc(F)cc4)nc4occn34)n2)CC1 [XCVIII] | 6.02 | 6.87 | 
22 | COCCCNc1nccc(-c2c(-c3ccc(F)cc3)nc3occn23)n1 [XCVII] | 7.92 | 8.85 | 
23 | CCNc1nccc(-c2c(-c3ccc(F)cc3)nc3occn23)n1 [XCV] | 7.74 | 8.47 | 
24 | CC(C)[C@@H](CO)Nc1nccc(-c2c(-c3ccc(F)cc3)nc3occn23)n1 [XII] | 7.93 | 7.78 | 
25 | OCCNc1nccc(-c2c(-c3ccc(F)cc3)nc3occn23)n1 [XIV] | 6.47 | 7.38 | 
26 | N#CCCNc1nccc(-c2c(-c3ccc(F)cc3)nc3occn23)n1 [XIX] | 5.94 | 7.00 | 
27 | CCOCCCNc1nccc(-c2c(-c3ccc(F)cc3)nc3occn23)n1 [XLIII] | 7.87 | 8.81 | 
28 | Fc1ccc(-c2nc3occn3c2-c2ccnc(NC[C@@H]3CCCO3)n2)cc1 [XLII] | 7.95 | 7.09 | 
29 | CCSCCNc1nccc(-c2c(-c3ccc(F)cc3)nc3occn23)n1 [XLIV] | 7.46 | 7.98 | 
30 | Fc1ccc(-c2nc3occn3c2-c2ccnc(NCc3cccs3)n2)cc1 [XLIX] | 7.70 | 8.23 | 
31 | CC(CO)Nc1nccc(-c2c(-c3ccc(F)cc3)nc3occn23)n1 (stereo not shown) [XLI] |  | 8.76 | 7.31
32 | Fc1ccc(-c2nc3occn3c2-c2ccnc(NCc3ccccn3)n2)cc1 [XLVIII] | 7.01 | 7.13 | 
33 | C[C@@H](CO)CCNc1nccc(-c2c(-c3ccc(F)cc3)nc3occn23)n1 [XLVII] | 7.86 | 7.50 | 
34 | OCCCCCNc1nccc(-c2c(-c3ccc(F)cc3)nc3occn23)n1 [XLVI] | 7.76 | 7.64 | 
35 | Fc1ccc(-c2nc3occn3c2-c2ccnc(NC[C@H]3CCCO3)n2)cc1 [XLV] | 7.95 | 7.93 | 
36 | OCCOCCNc1nccc(-c2c(-c3ccc(F)cc3)nc3occn23)n1 [XL] | 7.03 | 7.10 | 
37 | Fc1ccc(-c2nc3occn3c2-c2ccnc(NC3CC3)n2)cc1 [XVIII] | 7.95 | 9.36 | 
38 | CCC(O)CNc1nccc(-c2c(-c3ccc(F)cc3)nc3occn23)n1 (stereo not shown) [XVII] | 7.80 | 7.81 | 
39 | CC(O)CNc1nccc(-c2c(-c3ccc(F)cc3)nc3occn23)n1 (stereo not shown) [XVI] |  | 7.43 | 7.71
40 | CC(O)CNc1nccc(-c2c(-c3ccc(F)cc3)nc3occn23)n1 (stereo not shown) [XV] | 7.73 | 7.51 | 

Row | SMILES | pIC50 ([1]; Homo sapiens, THP-1, 18 h) | pIC50 [2] | pIC50 [1]
41 | C=CCNc1nccc(-c2c(-c3ccc(F)cc3)nc3occn23)n1 [XXIII] | 8.04 | 7.92 | 
42 | CC[C@@H](CO)Nc1nccc(-c2c(-c3ccc(F)cc3)nc3occn23)n1 [XXII] | 7.73 | 8.43 | 
43 | Fc1ccc(-c2nc3occn3c2-c2ccnc(NC3CCC3)n2)cc1 [XXIV] | 8.75 | 7.82 | 
44 | Fc1ccc(-c2nc3occn3c2-c2ccnc(NCC3CC3)n2)cc1 [XXIX] | 8.35 | 8.37 | 
45 | C[C@H](O)CNc1nccc(-c2c(-c3ccc(F)cc3)nc3occn23)n1 [XXI] | 7.86 | 8.16 | 
46 | CCCNc1nccc(-c2c(-c3ccc(F)cc3)nc3occn23)n1 [XXVIII] | 7.82 | 8.46 | 
47 | CC[C@H](CO)Nc1nccc(-c2c(-c3ccc(F)cc3)nc3occn23)n1 [XXVII] | 8.22 | 7.69 | 
48 | CN(C)CCNc1nccc(-c2c(-c3ccc(F)cc3)nc3occn23)n1 [XXVI] | 7.00 | 6.32 | 
49 | OCCCNc1nccc(-c2c(-c3ccc(F)cc3)nc3occn23)n1 [XXV] | 6.33 | 7.67 | 
50 | OCC(O)CNc1nccc(-c2c(-c3ccc(F)cc3)nc3occn23)n1 (stereo not shown) [XXXIII] | 7.24 | 6.84 | 
51 | COC[C@H](C)Nc1nccc(-c2c(-c3ccc(F)cc3)nc3occn23)n1 [XXXII] | 8.31 | 7.72 | 
52 | CCCC(CO)Nc1nccc(-c2c(-c3ccc(F)cc3)nc3occn23)n1 (stereo not shown) [XXXIV] | 7.71 | 8.66 | 
53 | COCC(C)Nc1nccc(-c2c(-c3ccc(F)cc3)nc3occn23)n1 (stereo not shown) [XXXI] | 7.99 | 8.80 | 
54 | CN(C)CCCNc1nccc(-c2c(-c3ccc(F)cc3)nc3occn23)n1 [XXXVIII] | 6.77 | 6.46 | 
55 | Fc1ccc(-c2nc3occn3c2-c2ccnc(NCc3ccco3)n2)cc1 [XXXVII] | 7.67 | 8.23 | 
56 | Cc1ccc(CNc2nccc(-c3c(-c4ccc(F)cc4)nc4occn34)n2)o1 [XXXVI] | 7.12 | 6.99 | 
57 | CC(CO)CCNc1nccc(-c2c(-c3ccc(F)cc3)nc3occn23)n1 (stereo not shown) [XXXV] | 7.75 | 7.75 | 
58 | CC(CO)Nc1nccc(-c2c(-c3ccc(F)cc3)nc3occn23)n1 (stereo not shown) [XXX] |  | 7.46 | 7.91
59 | COCCNc1nccc(-c2c(-c3ccc(F)cc3)nc3occn23)n1 [XX] | 7.19 | 7.61 | 

— US20070270418A1, “Inhibitors of P38 and Methods of Using the Same” (priority 2003, published 2007)
